Experiments:
[1] = target: T1, Akt3 (Homo sapiens, UniProt Q9Y243); assay: in vitro kinase assay, [γ-32P]ATP, GST-GSK-3β substrate; assay type: biochemical
T1 construct: active recombinant human Akt3

[2] = target: T2, Akt1 (Homo sapiens, UniProt P31749); assay: as above; assay type: biochemical
T2 construct: active recombinant human Akt1
T2 sequence (P31749 whole entry): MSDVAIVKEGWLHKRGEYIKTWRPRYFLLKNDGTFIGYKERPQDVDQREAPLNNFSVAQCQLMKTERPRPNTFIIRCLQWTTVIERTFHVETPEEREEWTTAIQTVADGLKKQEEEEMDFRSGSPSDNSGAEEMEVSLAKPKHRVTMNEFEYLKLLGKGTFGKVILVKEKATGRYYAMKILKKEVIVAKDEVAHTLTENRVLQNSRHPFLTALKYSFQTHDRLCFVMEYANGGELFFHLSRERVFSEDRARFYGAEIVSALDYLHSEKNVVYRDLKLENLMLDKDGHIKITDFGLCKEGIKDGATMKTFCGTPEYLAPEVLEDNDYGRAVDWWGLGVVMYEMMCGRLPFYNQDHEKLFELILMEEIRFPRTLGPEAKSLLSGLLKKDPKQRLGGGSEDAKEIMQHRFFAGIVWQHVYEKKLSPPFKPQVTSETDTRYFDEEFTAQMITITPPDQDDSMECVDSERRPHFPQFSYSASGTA

T1 sequence (Q9Y243 2-479): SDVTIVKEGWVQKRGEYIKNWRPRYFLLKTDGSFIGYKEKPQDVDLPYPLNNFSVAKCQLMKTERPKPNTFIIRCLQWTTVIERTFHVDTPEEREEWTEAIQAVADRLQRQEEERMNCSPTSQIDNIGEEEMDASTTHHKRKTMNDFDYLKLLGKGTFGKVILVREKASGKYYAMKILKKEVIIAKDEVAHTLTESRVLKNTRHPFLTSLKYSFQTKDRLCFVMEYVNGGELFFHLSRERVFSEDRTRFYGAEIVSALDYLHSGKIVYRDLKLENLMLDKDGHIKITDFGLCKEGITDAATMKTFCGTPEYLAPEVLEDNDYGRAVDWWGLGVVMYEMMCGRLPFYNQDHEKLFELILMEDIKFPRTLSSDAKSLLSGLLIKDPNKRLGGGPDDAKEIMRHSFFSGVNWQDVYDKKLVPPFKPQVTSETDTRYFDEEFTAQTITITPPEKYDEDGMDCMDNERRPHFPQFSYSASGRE

## C=C(C)[C@@H]1CC[C@]2(C)CC[C@]3(C)[C@H](CC[C@@H]4[C@@]5(C)CC[C@H](O)C(C)(C)[C@@H]5CC[C@]43C)[C@@H]12 [lupeol]
[1]
  in vitro kinase assay, [γ-32P]ATP, GST-GSK-3β substrate: Compared to ac-LA, lupeol was about threefold less potent in the inhibition of Akt1 and Akt3 isoforms
[2]
  in vitro kinase assay, [γ-32P]ATP, GST-GSK-3β substrate: Compared to ac-LA, lupeol was about threefold less potent in the inhibition of Akt1 and Akt3 isoforms

Source: article PMC5589648, “Acetyl-lupeolic acid inhibits Akt signaling and induces apoptosis in chemoresistant prostate cancer cells in vitro and in vivo” (Oncotarget, 2017)
